Results as given in US6001882A (priority 1997, dated 1999).
Where two headings read alike, the source gives them in different places.

Tests used:
Assay type in all cases: cell-based, human
[1] = test system: transformed ("EBV") PBMC; assay: Lymphocyte proliferation (3H-TdR incorporation), EBV-transformed PBMC; settings: for IC50: read-out: IC50 of cell proliferation; for ability to inhibit proliferation, 2 vs 1 J/cm^2: UV-A 2 J/cm^2 relative to 1 J/cm^2; for effect of UV-A on ability to inhibit proliferation: UV-A vs none; for effect of visible light on ability to inhibit proliferation: visible light vs none
Text: In two of the types of lymphocytes, the mitogen, ConA, was used to induce proliferation, as described (Fox et al., 1993, Cell. Immunol. 150:45-58). The third type of lymphocytes used in this example proliferated actively in vitro without the need for mitogenic stimulation. The three types of lymphocytes which were used in this example were: PBMC obtained from a normal human subject and stimulated with ConA; PBMC, including malignant CD4+ T-lymphocytes, obtained from a human subject having CTCL and stimulated with ConA; and PBMC obtained from a normal human subject, which PBMC were exposed to Epstein-Barr virus (EBV) after being obtained from the subject, to produce transformed lymphocytes. It is known that EBV-transformed B-lymphocytes proliferate actively in vitro (Polack, 1996, Proc. Natl. Acad. Sci. U.S.A. 93:10411-10416; Longnecker, 1994, Leukemia 8:546-550).
Peripheral blood mononuclear cells (PBMC) were obtained by separating them from whole blood, using Ficoll-Paque separation techniques and media (Boyum, 1964, Nature 793-794). After they were obtained, PBMC were resuspended in RPMI 1640 medium, which comprised 10% (v/v) fetal bovine serum (GIBCO, Grand Island, N.Y.), and were distributed into the wells of 96-well microtiter plates. PBMC transformed using EBV were made as described (Neitzel, 1986, Hum. Gen. 73:320-326)
This stock solution stored at 4° C. in the dark. A stock solution comprising 462.5 μM 8-methoxypsoralen (8-MOP) was prepared in 2% (v/v) benzyl alcohol. 8-MOP was obtained from Sigma (St. Louis, Mo.).
In cultures of transformed leukocytes in which 8-MOP was used, the concentrations of 8-MOP which were used were 92.5 μM, 18.5 μM, 3.7 μM, 0.74 μM, 0.15 μM, and 0.030 μM. Thereafter, ConA was then added to preselected wells to achieve a final concentration of 10 μg/ml of ConA in those wells.
Following preparation of the microtiter culture plates, preselected plates were illuminated with fluorescent visible light for 10-30 minutes, using four fluorescent bulbs (type F15T8CW, TFC Inc., Taiwan) spaced at a distance of 9 cm above the plates. Other preselected plates were illuminated with 0.5-2 Joules per square centimeter UV-A light using a UV-A light box containing 8 UVAR 06-91 bulbs. Still other preselected plates were not exposed to light. The covers of plates which were exposed to light were left in place during illumination.
Following illumination, plates which had been illuminated were placed into a dark incubator which was maintained at 37° C. Non-illuminated plates were placed into the incubator immediately after preparation. All plates were incubated for seventy-two hours. During the final eighteen hours of incubation, tritiated thymidine (^3 H-TdR) was added to each well of each plate. No extraordinary precautions were used to prevent light exposure during the addition of ^3 H-TdR.
Lymphocyte proliferation was assessed by measuring the extent of incorporation of ^3 H-TdR into newly synthesized DNA within the cells at the end of the seventy-two hour incubation period, as described (Fox, 1993, Cell. Immunol. 150:45-58).

[2] = test system: PBMC obtained from a patient having CTCL; assay: Induction of apoptosis of CTCL PBMC, TUNEL assay (Example 2); settings: for percentage of PBMC which underwent apoptosis: 10 μM hypericin or 100 ng/ml 8-MOP
Description: The processing of neoplastic leukocytes, the media and stock solutions used, and the procedures which were used were the same as those presented in Example 1, except as described below.
Cultures were illuminated using fluorescent light for 20 minutes, illuminated with 2 J/cm^2 UV-A light or were not illuminated. After 24 and 48 hours, apoptosis was measured using a TUNEL assay, as described (Sgonc, 1994 Trends Gen. 10:41-42). The TUNEL assay specifically labels free ends of internucleosomally-cleaved DNA--the hallmark of the apoptotic process.

[3] = test system: malignant leukocytes; assay: Flow cytometric sorting of apoptotic malignant leukocytes (dUTP-FITC incorporation); settings: 10 μM hypericin or 0.462 μM 8-MOP, 18 h
Text: FIG. 8, comprising Panels A-G, is a series of graphs which represent distributions of cell types within various cultures, as assessed by flow cytometric cell sorting, using incorporation of dUTP-FITC into fragmented DNA as a selection criterion. Malignant leukocytes which have not been induced to undergo apoptosis are represented as points which are located below an imaginary horizontal line located at approximately 2×10^1 on the vertical axis of each graph. Malignant leukocytes which have been induced to undergo apoptosis are represented as points which are located above an imaginary horizontal line located at approximately 3×10^1 on the vertical axis of each graph. […] The graph in Panel B corresponds to cells which were treated with hypericin and which were not illuminated. The graph in Panel C corresponds to cells which were treated with hypericin and which were illuminated using visible light. The graph in Panel D corresponds to cells which were treated with hypericin and which were illuminated using UV-A light. The graph in Panel E corresponds to cells which were treated with 8-MOP and which were not illuminated. The graph in Panel F corresponds to cells which were treated with 8-MOP and which were illuminated using visible light. The graph in Panel G corresponds to cells which were treated with 8-MOP and which were illuminated using UV-A light.
Hypericin-treated malignant leukocytes and 8-MOP-treated leukocytes were photoactivated using visible light for 20 minutes or 2 J/cm^2 UV-A light, or were not photoactivated, as described in Example 1. 18 hours after photoactivation, or 18 hours after preparation of the cultures which were not photoactivated, leukocyte cultures were harvested, and apoptotic cells were separated from non-apoptotic cells using a FACScan flow cytometer (Becton Dickinson Immunocytometry Systems, San Jose, Calif.). Apoptotic cells were distinguished from non-apoptotic cells based on increased dUTP-FITC incorporation.

[4] = test system: PBMC obtained from a subject having CTCL; assay: Induction of apoptosis in CTCL PBMC, TUNEL assay (Example 3); settings: for percentage of PBMC which underwent apoptosis: CTCL, 18 h; for capability of inducing apoptosis: malignant leukocytes
[5] = Homo sapiens, PBMC, 10 min, visible light, 10 min
[6] = Homo sapiens, PBMC, 20 min, visible light, 20 min
[7] = Homo sapiens, PBMC, 0.5 h, visible light, 30 min
[8] = Homo sapiens, PBMC, UV-A, 0.5 J/sc
[9] = Homo sapiens, PBMC, UV-A, 1 J/sc
[10] = Homo sapiens, PBMC, UV-A, 2 J/sc
[11] = Homo sapiens, PBMC, not illuminated

Compound	IC50 [1, 5] [µM]	IC50 [1, 6] [µM]	IC50 [1, 7] [µM]	IC50 [1, 8] [µM]	IC50 [1, 9] [µM]	IC50 [1, 10] [µM]	IC50 [1, 11] [µM]	ability to inhibit proliferation, 2 vs 1 J/cm^2 [1]	effect of UV-A on ability to inhibit proliferation [1]	effect of visible light on ability to inhibit proliferation [1]	percentage of PBMC which underwent apoptosis ([2]; 24 h, UV-A 2 J/cm^2) [percentage]	percentage of PBMC which underwent apoptosis ([2]; 24 h, no light) [percentage]	percentage of PBMC which underwent apoptosis ([2]; 24 h, visible light 20 min) [percentage]	percentage of PBMC which underwent apoptosis ([2]; 48 h, UV-A 2 J/cm^2) [percentage]	percentage of PBMC which underwent apoptosis ([2]; 48 h, no light) [percentage]	percentage of PBMC which underwent apoptosis ([2]; 48 h, visible light 20 min) [percentage]	potency as inducer of apoptosis, hypericin vs 8-MOP ([2]; UV-A light)	induction of apoptosis (flow cytometry, FIG. 8) ([3]; UV-A 2 J/cm^2)	induction of apoptosis (flow cytometry, FIG. 8) ([3]; no photoactivation)	induction of apoptosis (flow cytometry, FIG. 8) ([3]; visible light 20 min)	further results
Cc1cc(O)c2c(=O)c3c(O)cc(O)c4c5c(O)cc(O)c6c(=O)c7c(O)cc(C)c8c1c2c(c34)c(c78)c65 [hypericin, 1,3,4,6,8,13-Hexahydroxy-10,11,dimethyl-phenanthro[1,10,9,8,-opqra]perylene-7,14-dione]	3.2	1.8	0.75	3.7	2.1	2	36	essentially the same	enhanced significantly upon illumination using UV-A light	enhanced significantly upon illumination using visible light	88	11.5	97	96	18	91	approximately equally potent inducers of apoptosis of malignant leukocytes	induced apoptosis in most cells	neither hypericin nor 8-MOP induced significant apoptosis	induced apoptosis in nearly all cells	IC100 ([1]; Homo sapiens, PBMC, 72 h, visible light, 30 min, read-out: concentration at which proliferation was completely inhibited): 3.2 µM; inhibition of proliferation after 30 min illumination ([1]; visible light, 30 vs 10 or 20 min): greater than that which resulted from illumination for a period of 10 or 20 minutes; potency as inducer of apoptosis, hypericin vs 8-MOP ([2]; visible light): much more potent inducer of apoptosis of malignant leukocytes than 8-MOP; percentage of PBMC which underwent apoptosis ([4]; 1 μM, UV-A 2 J/cm^2): 26.1 percentage; percentage of PBMC which underwent apoptosis ([4]; 1 μM, no light): 2.6 percentage; percentage of PBMC which underwent apoptosis ([4]; 1 μM, visible light 20 min): 17.2 percentage; percentage of PBMC which underwent apoptosis ([4]; 10 μM, UV-A 2 J/cm^2): 94.4 percentage; percentage of PBMC which underwent apoptosis ([4]; 10 μM, no light): 2.8 percentage; percentage of PBMC which underwent apoptosis ([4]; 10 μM, visible light 20 min): 94.3 percentage; capability of inducing apoptosis ([4]; UV-A light): capable of inducing apoptosis in malignant leukocytes; capability of inducing apoptosis ([4]; visible light): capable of inducing apoptosis in both normal and malignant leukocytes
COc1c2occc2cc2ccc(=O)oc12 [8-MOP, 8-methoxypsoralen]	18.7	17.3	18.9	4.2	1.6	0.7	19.4	roughly doubled	enhanced significantly upon illumination using UV-A light	not enhanced upon illumination using visible light	87	11.5	32	94	21	48	approximately equally potent inducers of apoptosis of malignant leukocytes	induced apoptosis in most cells	neither hypericin nor 8-MOP induced significant apoptosis	induced apoptosis in only a limited number of cells	percentage of PBMC which underwent apoptosis ([4]; 1 μM, UV-A 2 J/cm^2): 44.0 percentage; percentage of PBMC which underwent apoptosis ([4]; 1 μM, no light): 2.5 percentage; percentage of PBMC which underwent apoptosis ([4]; 1 μM, visible light 20 min): 11.0 percentage; percentage of PBMC which underwent apoptosis ([4]; 10 μM, UV-A 2 J/cm^2): 74.3 percentage; percentage of PBMC which underwent apoptosis ([4]; 10 μM, no light): 2.4 percentage; percentage of PBMC which underwent apoptosis ([4]; 10 μM, visible light 20 min): 12.2 percentage; selectivity of apoptosis induction, malignant vs normal leukocytes ([4]; UV-A light): the magnitude of the selective effect was much smaller; capability of inducing apoptosis ([4]; UV-A light): capable of inducing apoptosis in malignant leukocytes; capability of inducing apoptosis ([4]; visible light): not 8-MOP, is capable of inducing apoptosis in both normal and malignant leukocytes
